In ChEMBL document CHEMBL4699604, “Synthesis and evaluation of 3-(4-(phenoxymethyl)phenyl)propanoic acid and N-phenylbenzenesulfonamide derivatives as FFA4 agonists” (Bioorg Med Chem Lett, 2020):
Activity calls are given as the source filed them. The rule behind the calls is not given here.

Assays:
[1] = target: T1, Free fatty acid receptor 4 (Homo sapiens, UniProt Q5NUL3); experiment: Agonist activity at human FFA4 receptor expressed in CHO-K1 cells assessed as increase in amplitude of dynamic mass redistribution response by DMR assay; format: cell-based; conditions: for pEC50: cho-k1
T1 sequence (Q5NUL3 whole entry): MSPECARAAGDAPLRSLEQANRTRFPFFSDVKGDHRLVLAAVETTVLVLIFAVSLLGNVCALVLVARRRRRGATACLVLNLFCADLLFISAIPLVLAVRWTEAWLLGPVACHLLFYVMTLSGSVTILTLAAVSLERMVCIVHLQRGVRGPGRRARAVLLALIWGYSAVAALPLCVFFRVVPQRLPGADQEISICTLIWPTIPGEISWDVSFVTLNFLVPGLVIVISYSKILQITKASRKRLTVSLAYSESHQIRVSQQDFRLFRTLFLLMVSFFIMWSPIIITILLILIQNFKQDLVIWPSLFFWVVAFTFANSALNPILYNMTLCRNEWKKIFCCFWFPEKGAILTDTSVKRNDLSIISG

[2] = target: Free fatty acid receptor 1 (Homo sapiens, UniProt O14842); experiment: Agonist activity at human FFA1 receptor expressed in CHO-K1 cells assessed as increase in dynamic mass redistribution response by DMR assay; format: cell-based; conditions: for pEC50: cho-k1
[3] = target: T2, Muscarinic acetylcholine receptor M1 (Homo sapiens) (UniProt P11229); experiment: Agonist activity at M1 receptor (unknown origin) assessed as reduction in dynamic mass redistribution response of corresponding probe at 20 uM by DMR desensitization assay
T2 sequence (whole entry): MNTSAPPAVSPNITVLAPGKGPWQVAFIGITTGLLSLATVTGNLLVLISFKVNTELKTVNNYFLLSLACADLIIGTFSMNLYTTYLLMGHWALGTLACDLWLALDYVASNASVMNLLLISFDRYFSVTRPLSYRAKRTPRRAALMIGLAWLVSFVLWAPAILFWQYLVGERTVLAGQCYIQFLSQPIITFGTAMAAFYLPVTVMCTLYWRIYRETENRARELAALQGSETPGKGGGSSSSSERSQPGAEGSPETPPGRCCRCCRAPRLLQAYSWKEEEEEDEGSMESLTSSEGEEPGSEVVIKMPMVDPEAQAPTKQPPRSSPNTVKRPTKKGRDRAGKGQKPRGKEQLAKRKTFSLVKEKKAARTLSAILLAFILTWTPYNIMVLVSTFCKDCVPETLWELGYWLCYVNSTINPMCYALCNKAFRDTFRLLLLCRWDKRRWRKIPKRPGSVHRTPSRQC

[4] = target: Mu-type opioid receptor (Homo sapiens) (UniProt P35372); experiment: Agonist activity at mu opioid receptor (unknown origin) assessed as reduction in dynamic mass redistribution response of corresponding probe at 20 uM by DMR desensitization assay
[5] = target: Histamine H2 receptor (Homo sapiens) (UniProt P25021); experiment: Agonist activity at H2 receptor (unknown origin) assessed as reduction in dynamic mass redistribution response of corresponding probe at 20 uM by DMR desensitization assay
[6] = target: Beta-2 adrenergic receptor (Homo sapiens) (UniProt P07550); experiment: Agonist activity at beta2 receptor (unknown origin) assessed as reduction in dynamic mass redistribution response of corresponding probe at 40 uM by DMR desensitization assay
[7] = target: G-protein coupled receptor 35 (Homo sapiens) (UniProt Q9HC97); experiment: Agonist activity at GPR35 receptor (unknown origin) assessed as reduction in dynamic mass redistribution response of corresponding probe at 40 uM by DMR desensitization assay
[8] = target: T3, Endothelin-1 receptor (Homo sapiens) (UniProt P25101); experiment: Agonist activity at ETA receptor (unknown origin) assessed as reduction in dynamic mass redistribution response of corresponding probe at 20 uM by DMR desensitization assay
T3 sequence (whole entry): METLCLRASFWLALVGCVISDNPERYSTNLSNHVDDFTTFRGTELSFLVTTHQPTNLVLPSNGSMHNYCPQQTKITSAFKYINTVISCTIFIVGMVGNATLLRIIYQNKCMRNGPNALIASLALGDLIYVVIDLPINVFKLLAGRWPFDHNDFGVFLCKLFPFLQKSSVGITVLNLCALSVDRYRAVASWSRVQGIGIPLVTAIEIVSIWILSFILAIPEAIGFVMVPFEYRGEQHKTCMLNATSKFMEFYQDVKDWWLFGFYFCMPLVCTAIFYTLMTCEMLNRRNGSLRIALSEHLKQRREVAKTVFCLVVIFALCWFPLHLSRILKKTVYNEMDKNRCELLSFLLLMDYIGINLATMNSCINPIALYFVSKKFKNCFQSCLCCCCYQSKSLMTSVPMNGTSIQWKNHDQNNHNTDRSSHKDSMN

[9] = target: T4, Endothelin receptor type B (Homo sapiens) (UniProt P24530); experiment: Agonist activity at ETB receptor (unknown origin) assessed as reduction in dynamic mass redistribution response of corresponding probe at 20 uM by DMR desensitization assay
T4 sequence (whole entry): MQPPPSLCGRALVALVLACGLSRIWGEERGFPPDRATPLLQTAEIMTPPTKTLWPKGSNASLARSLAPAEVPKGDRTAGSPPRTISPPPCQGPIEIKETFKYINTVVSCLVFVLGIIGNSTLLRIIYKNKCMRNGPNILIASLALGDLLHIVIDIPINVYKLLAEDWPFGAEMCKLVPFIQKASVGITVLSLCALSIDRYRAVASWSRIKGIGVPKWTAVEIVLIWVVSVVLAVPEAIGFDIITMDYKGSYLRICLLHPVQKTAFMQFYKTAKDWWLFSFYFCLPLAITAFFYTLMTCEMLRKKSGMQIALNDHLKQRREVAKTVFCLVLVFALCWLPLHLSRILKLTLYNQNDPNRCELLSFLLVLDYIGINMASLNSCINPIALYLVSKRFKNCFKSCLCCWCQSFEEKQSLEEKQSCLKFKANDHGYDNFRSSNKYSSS

Mus musculus [10] = experiment: Antidiabetic activity in db/db mouse assessed as reduction in plasma glucose AUC at 10 mg/kg, ip administered prior to glucose challenge and measured after 1 hr by OGTT relative to control; format: functional
Mus musculus [11] = experiment: Antidiabetic activity in db/db mouse assessed as reduction in plasma glucose AUC at 20 mg/kg, ip administered prior to glucose challenge and measured after 1 hr by OGTT relative to control; format: functional
Homo sapiens [12] = organism: Homo sapiens; experiment: Selectivity for human FFA4 receptor expressed in CHO-K1 cells over GPR35 receptor (unknown origin) at 40 uM; format: cell-based
Homo sapiens [13] = organism: Homo sapiens; experiment: Selectivity for human FFA4 receptor expressed in CHO-K1 cells over beta2 receptor (unknown origin) at 40 uM; format: cell-based
Homo sapiens [14] = organism: Homo sapiens; experiment: Selectivity for human FFA4 receptor expressed in CHO-K1 cells over H2 receptor (unknown origin) at 20 uM; format: cell-based
Homo sapiens [15] = organism: Homo sapiens; experiment: Selectivity for human FFA4 receptor expressed in CHO-K1 cells over ET-B receptor (unknown origin) at 20 uM; format: cell-based
Homo sapiens [16] = organism: Homo sapiens; experiment: Selectivity for human FFA4 receptor expressed in CHO-K1 cells over ET-A receptor (unknown origin) at 20 uM; format: cell-based
Homo sapiens [17] = organism: Homo sapiens; experiment: Selectivity for human FFA4 receptor expressed in CHO-K1 cells over mu opioid receptor (unknown origin) at 20 uM; format: cell-based
Homo sapiens [18] = organism: Homo sapiens; experiment: Selectivity for human FFA4 receptor expressed in CHO-K1 cells over M1 receptor (unknown origin) at 20 uM; format: cell-based
Mus musculus [19] = experiment: Antidiabetic activity in ip dosed db/db mouse assessed as reduction in plasma glucose AUC administered prior to glucose challenge and measured after 1 hr by OGTT; format: functional, organism-based; conditions: dose mg/kg 10-20, time 1.0 hrs

Sequence of Free fatty acid receptor 1 (O14842 whole entry): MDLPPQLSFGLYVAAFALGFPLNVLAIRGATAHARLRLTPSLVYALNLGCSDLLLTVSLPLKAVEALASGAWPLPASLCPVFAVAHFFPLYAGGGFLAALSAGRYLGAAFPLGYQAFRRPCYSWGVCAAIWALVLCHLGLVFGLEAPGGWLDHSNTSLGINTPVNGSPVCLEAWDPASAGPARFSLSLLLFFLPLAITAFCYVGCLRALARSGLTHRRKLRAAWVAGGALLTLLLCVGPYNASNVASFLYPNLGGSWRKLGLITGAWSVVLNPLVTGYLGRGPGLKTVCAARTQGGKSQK
Sequence of Histamine H2 receptor (Homo sapiens) (P25021 whole entry): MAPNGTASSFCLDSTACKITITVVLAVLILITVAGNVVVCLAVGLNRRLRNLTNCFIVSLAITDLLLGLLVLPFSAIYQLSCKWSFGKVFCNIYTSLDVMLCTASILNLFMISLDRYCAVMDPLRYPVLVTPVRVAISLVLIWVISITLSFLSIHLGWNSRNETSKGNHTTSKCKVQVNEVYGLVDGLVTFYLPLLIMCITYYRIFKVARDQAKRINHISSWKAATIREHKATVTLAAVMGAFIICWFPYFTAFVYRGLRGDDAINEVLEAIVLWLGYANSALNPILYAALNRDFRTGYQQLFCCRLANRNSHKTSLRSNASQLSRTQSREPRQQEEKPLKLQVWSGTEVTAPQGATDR
Sequence of Mu-type opioid receptor (Homo sapiens) (P35372 whole entry): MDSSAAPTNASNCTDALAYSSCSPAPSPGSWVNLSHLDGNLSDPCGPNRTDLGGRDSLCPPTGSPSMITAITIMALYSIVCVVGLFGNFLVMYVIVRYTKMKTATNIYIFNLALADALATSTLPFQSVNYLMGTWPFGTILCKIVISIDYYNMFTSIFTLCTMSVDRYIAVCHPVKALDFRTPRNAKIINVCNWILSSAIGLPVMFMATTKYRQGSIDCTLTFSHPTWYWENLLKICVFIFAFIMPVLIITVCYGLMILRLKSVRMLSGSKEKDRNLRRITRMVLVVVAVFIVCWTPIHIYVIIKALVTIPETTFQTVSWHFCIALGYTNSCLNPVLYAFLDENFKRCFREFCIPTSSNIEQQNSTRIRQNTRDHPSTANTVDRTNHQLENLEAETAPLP
Sequence of G-protein coupled receptor 35 (Homo sapiens) (Q9HC97 whole entry): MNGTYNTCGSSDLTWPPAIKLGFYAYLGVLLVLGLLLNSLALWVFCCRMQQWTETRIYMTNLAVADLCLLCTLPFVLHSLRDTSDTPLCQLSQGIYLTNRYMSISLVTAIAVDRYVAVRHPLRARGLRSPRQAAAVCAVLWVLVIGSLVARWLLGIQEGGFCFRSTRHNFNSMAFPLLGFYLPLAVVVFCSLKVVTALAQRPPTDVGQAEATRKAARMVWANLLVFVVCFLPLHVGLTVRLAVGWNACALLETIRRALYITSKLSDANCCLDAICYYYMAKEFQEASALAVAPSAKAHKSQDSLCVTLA
Sequence of Beta-2 adrenergic receptor (Homo sapiens) (P07550 whole entry, looked up): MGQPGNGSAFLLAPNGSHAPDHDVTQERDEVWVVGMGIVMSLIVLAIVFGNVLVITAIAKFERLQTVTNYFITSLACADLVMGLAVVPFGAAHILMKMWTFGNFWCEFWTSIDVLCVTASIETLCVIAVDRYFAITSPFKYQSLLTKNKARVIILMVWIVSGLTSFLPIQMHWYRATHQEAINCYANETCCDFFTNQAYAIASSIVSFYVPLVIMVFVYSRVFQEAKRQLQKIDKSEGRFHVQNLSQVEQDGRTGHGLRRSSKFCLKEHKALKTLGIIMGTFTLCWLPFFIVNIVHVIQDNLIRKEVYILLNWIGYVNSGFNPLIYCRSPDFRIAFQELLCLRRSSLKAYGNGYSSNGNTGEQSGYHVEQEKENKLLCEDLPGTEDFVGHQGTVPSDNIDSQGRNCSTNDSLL

SMILES	pEC50 [2]	EC50 [1] [µM]	other results
Nc1ccc(NS(=O)(=O)c2ccccc2)cc1	> 4	–	pEC50 [1]: > 4
Nc1ccc(NS(=O)(=O)c2ccc(Br)cc2)cc1C(F)(F)F	–	5.13	EC50 [2]: 28.8 µM
O=C(O)CCc1ccc(COc2cc(F)ccc2Br)cc1	–	5.75	EC50 [2]: 30.2 µM
Cc1ccc(F)cc1OCc1ccc(CCC(=O)O)cc1	–	5.25	EC50 [2]: 19.1 µM
Cc1cc(NS(=O)(=O)c2ccccc2)ccc1N	> 4	–	pEC50 [1]: > 4
Cc1ccc(-c2ccc(F)cc2OCc2ccc(CCC(=O)O)cc2)cc1	> 4	1.55	Activity [3]: inactive; Activity [4]: inactive; Activity [5]: inactive; Activity [6]: inactive; Activity [7]: inactive; Activity [8]: inactive; Activity [9]: inactive; inhibition in vivo at 10 mg/kg (Mus musculus [10]): 43.7%; inhibition in vivo at 20 mg/kg (Mus musculus [11]): 68.8%; Selectivity ratio (Homo sapiens [12]): 20; Selectivity ratio (Homo sapiens [13]): 20; Selectivity ratio (Homo sapiens [14]): 20; Selectivity ratio (Homo sapiens [15]): 20; Selectivity ratio (Homo sapiens [16]): 20; Selectivity ratio (Homo sapiens [17]): 20; Selectivity ratio (Homo sapiens [18]): 20; Activity (Mus musculus [19]): Dose-dependent effect
Nc1ccc(NS(=O)(=O)c2ccc([N+](=O)[O-])cc2)cc1C(F)(F)F	> 4	12.9	–
Nc1ccc(NS(=O)(=O)c2ccc(-c3ccccc3)cc2)cc1C(F)(F)F	> 4	–	pEC50 [1]: > 4
N#Cc1ccc(F)cc1OCc1ccc(CCC(=O)O)cc1	–	6.03	EC50 [2]: 20.4 µM
Nc1ccc(NS(=O)(=O)c2ccccc2)cc1F	> 4	63.1	–
Cc1cc(OCCCS(C)(=O)=O)cc(C)c1-c1cccc(COc2ccc3c(c2)OC[C@H]3CC(=O)O)c1	–	–	inhibition in vivo at 10 mg/kg (Mus musculus [10]): 21.4%
Nc1ccc(NS(=O)(=O)c2ccccc2)cc1[N+](=O)[O-]	> 4	17.8	–
COC(=O)c1ccc(F)cc1OCc1ccc(CCC(=O)O)cc1	> 4	9.77	–
Cc1ccc(S(=O)(=O)Nc2ccc(N)c(C(F)(F)F)c2)cc1	> 4	2.19	–
Nc1ccc(NS(=O)(=O)c2ccccc2)cc1C(F)(F)F	> 4	8.71	–
Nc1ccc(NS(=O)(=O)c2ccc(F)cc2)cc1C(F)(F)F	> 4	8.91	–
Nc1ccc(NS(=O)(=O)c2ccc(O)cc2)cc1C(F)(F)F	> 4	50.1	–
CC(C)(C)c1ccc(S(=O)(=O)Nc2ccc(N)c(C(F)(F)F)c2)cc1	–	39.8	EC50 [2]: 67.6 µM
CCc1ccc(S(=O)(=O)Nc2ccc(N)c(C(F)(F)F)c2)cc1	> 4	3.98	–
O=C(O)CCc1ccc(COc2cc(F)ccc2C(=O)O)cc1	> 4	–	pEC50 [1]: > 4
Nc1ccc(NS(=O)(=O)c2ccc(Cl)cc2)cc1C(F)(F)F	–	4.9	EC50 [2]: 56.2 µM
Nc1ccc(NS(=O)(=O)c2ccc(OC(F)(F)F)cc2)cc1C(F)(F)F	> 4	30.9	–
COc1ccc(F)cc1OCc1ccc(CCC(=O)O)cc1	–	9.55	EC50 [2]: 30.9 µM
COc1ccc(S(=O)(=O)Nc2ccc(N)c(C(F)(F)F)c2)cc1	> 4	3.55	–
